Measurements taken from patent publication US20050209320A1 (priority 2003, published 2005).
Where two headings read alike, the source gives them in different places.

Experiments:
[1] = system: LNCaP prostate cancer cells (express AR); conditions: for IC50: read-out: Growth Curve LNCaP
[2] = system: CV-1 monkey kidney cells (do not express AR); conditions: for IC50: read-out: Growth Curve CV-1
[3] = system: LNCaP prostate cancer cells (express AR); test: cells; conditions: Homo sapiens, 120 h, read-out: Growth Curve LNCaP
[4] = biological target: T1, Androgen Receptor (AR) (Rattus norvegicus, UniProt P15207); assay type: binding
T1 sequence (P15207 1-902): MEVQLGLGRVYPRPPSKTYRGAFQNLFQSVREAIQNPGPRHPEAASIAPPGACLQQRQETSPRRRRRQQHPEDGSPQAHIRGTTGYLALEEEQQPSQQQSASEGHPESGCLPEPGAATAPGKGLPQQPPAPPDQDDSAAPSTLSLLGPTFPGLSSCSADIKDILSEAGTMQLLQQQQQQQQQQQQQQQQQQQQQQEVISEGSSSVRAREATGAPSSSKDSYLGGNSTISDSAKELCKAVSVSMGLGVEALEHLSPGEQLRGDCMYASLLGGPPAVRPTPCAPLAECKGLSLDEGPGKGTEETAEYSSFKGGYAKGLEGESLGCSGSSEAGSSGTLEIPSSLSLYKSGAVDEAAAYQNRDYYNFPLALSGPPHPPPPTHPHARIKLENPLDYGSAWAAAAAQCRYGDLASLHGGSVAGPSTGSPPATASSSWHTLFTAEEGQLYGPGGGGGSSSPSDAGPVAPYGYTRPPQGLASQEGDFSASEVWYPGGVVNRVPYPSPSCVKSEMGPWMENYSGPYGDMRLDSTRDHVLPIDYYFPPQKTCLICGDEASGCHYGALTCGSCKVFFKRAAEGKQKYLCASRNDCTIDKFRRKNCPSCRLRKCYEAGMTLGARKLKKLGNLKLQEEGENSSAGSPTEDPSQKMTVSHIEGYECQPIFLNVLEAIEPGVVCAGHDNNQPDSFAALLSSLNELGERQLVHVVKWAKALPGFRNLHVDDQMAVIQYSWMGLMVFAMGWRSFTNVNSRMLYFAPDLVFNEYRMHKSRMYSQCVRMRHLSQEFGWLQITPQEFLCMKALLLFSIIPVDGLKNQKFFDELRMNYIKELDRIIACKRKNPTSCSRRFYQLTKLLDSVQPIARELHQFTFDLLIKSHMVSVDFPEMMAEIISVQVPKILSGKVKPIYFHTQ

[5] = system: LNCaP prostate cancer cells (express AR)

| SMILES | IC50 [1] [µM] | IC50 [2] [µM] | cytotoxicity / cell growth inhibition in LNCaP cells [1] | further results |
| --- | --- | --- | --- | --- |
| C[C@](O)(COc1ccc(N(CCCl)CCCl)cc1)C(=O)Nc1ccc(C#N)c(C(F)(F)F)c1.Cl [Compound 1] | 0.86 | 1.94 | – | cytotoxicity in CV-1 cells [2]: cytotoxic; potency in CV-1 cells less than in LNCaP cells [2]: approximately 3.5 fold |
| C[C@](O)(COc1ccc(N(CCO)CCO)cc1)C(=O)Nc1ccc(C#N)c(C(F)(F)F)c1 [Compound 2] | – | – | not cytotoxic | max inhibition [1]: Trypan Blue (max 65% inhibition); cytotoxicity in CV-1 cells [2]: not cytotoxic; IC50 [3]: 0.77 µM |
| OCCN(CCO)c1ccc(O)cc1 [Compound 4] | – | – | – | Ki (nM) [4]: DNB; cytotoxicity in LNCaP cells [5]: nontoxic |
| C[C@](O)(CSc1ccc(OC(=O)N(CCCl)CCCl)cc1)C(=O)Nc1ccc([N+](=O)[O-])c(C(F)(F)F)c1 [Compound 6] | 0.8 | 4.65 | – | – |
| C[C@](O)(COc1ccc(N(CCCl)CCCl)cc1)C(=O)Nc1ccc(C#N)c(I)c1.Cl [Compound 7] | 0.33 | 2.61 | potent and selective cell growth inhibition effect | – |
| C[C@](O)(COc1ccc(N(CCCl)CCCl)cc1)C(=O)Nc1ccc([N+](=O)[O-])c(C(F)(F)F)c1.Cl [Compound 8] | 0.81 | 5.2 | potent and selective cell growth inhibition effect | – |
| C[C@](O)(CS(=O)(=O)c1ccc(OC(=O)N(CCCl)CCCl)cc1)C(=O)Nc1ccc([N+](=O)[O-])c(C(F)(F)F)c1 [Compound 10] | 1.5 | 2.6 | – | – |
